Literature values in patent US10759976B2, “Color changeable adhesives and methods of making such adhesives” (Sensor International, LLC, priority 2018, dated 2020).

Settings: Table 2, carbon dioxide sensitive pigments/dyes

| Compound | pKa |
| --- | --- |
| 5′ and 6′-Carboxyseminaphtholrhodamine | 7.5 |
| O=S(=O)(O)c1cc(O)c2ccc3c(S(=O)(=O)O)cc(S(=O)(=O)O)c4ccc1c2c34 [1, Hydroxypyrene-3,6,8-trisulphonic acid] | 8.1 |
| 5′ and 6′-Carboxyseminaphtholfluorescein | 7.4 |
| Cc1cc(O)c(C(C)C)cc1C1(c2cc(C(C)C)c(O)cc2C)OS(=O)(=O)c2ccccc21 [Thymol blue, thymolsulphonephthalein] | 9.0 |
| O=C(O)Cc1cc(=O)oc2cc(O)ccc12 [7-hydroxycoumarin-4-acetic acid] | 7.8 |
| o-Cresolphthalein | 9.4 |
| Cc1cc(O)c(C(C)C)cc1C1(c2cc(C(C)C)c(O)cc2C)OC(=O)c2ccccc21 [Thymolphthalein, 3,3-bis(4-hydroxy-2-methyl-5-propan-2-ylphenyl)-2-benzofuran-1-one] | 9.7 |
| Cc1cc(O)ccc1C1(c2ccc(O)cc2C)OS(=O)(=O)c2ccccc21 [m-Cresol Purple] | 8.3 |
| O=S1(=O)OC(c2ccc(O)cc2)(c2ccc(O)cc2)c2ccccc21 [Phenol Red, phenolsulfonphthalein] | 7.6 |

Same assay, conditions: Table 3, fluorimetric pigments/dyes

| Compound | pKa |
| --- | --- |
| O=S(=O)(O)c1cc(O)c2ccc3c(S(=O)(=O)O)cc(S(=O)(=O)O)c4ccc1c2c34 [1, Hydroxypyrene-3,6,8-trisulphonic acid] | 8.1 |
| NC(=O)NN=Cc1ccccc1O [salicylaldehyde semicarbazone] | 7.8 |

Same assay, conditions: Table 4, ammonia sensitive pigments/dyes

| Compound | pKa |
| --- | --- |
| CN(C)c1ccc(N=Nc2ccc(S(=O)(=O)[O-])cc2)cc1.[Na+] [Methyl Orange] | 4.2 |
| O=C([O-])c1c(Cl)c(Cl)c(Cl)c(Cl)c1-c1c2cc(Br)c(=O)c(Br)c-2oc2c(Br)c([O-])c(Br)cc12.[Na+].[Na+] [Phloxine B] | 2.5 |
| Cc1c(C2(c3cc(Br)c(O)c(Br)c3C)OS(=O)(=O)c3ccccc32)cc(Br)c(O)c1Br [Bromocresol green] | 4.7 |
| Nitrazine yellow | 6.4 |
| Cc1cc(O)c(C(C)C)cc1C1(c2cc(C(C)C)c(O)cc2C)OS(=O)(=O)c2ccccc21 [Thymol blue, thymolsulphonephthalein] | 1.6 |
| CN(C)c1ccc(N=Nc2ccccc2)cc1 [Methyl yellow] | 3.3 |
| O=C1c2ccccc2C(=O)c2c1ccc(O)c2O [Alizarin] | 6.8 |
| O=S1(=O)OC(c2cc(Br)c(O)c(Br)c2)(c2cc(Br)c(O)c(Br)c2)c2ccccc21 [Bromophenol blue] | 3.9 |
| O=S1(=O)OC(c2ccc(O)c(Cl)c2)(c2ccc(O)c(Cl)c2)c2ccccc21 [Chlorophenol red] | 6.3 |
| CN(C)c1ccc(/N=N/c2ccccc2C(=O)O)cc1 [Methyl red] | 5.4 |
| O=C1c2ccccc2C(=O)c2c1cc(S(=O)(=O)O)c(O)c2O [Alizarin red S] | 4.5 |
| Cc1cc(O)ccc1C1(c2ccc(O)cc2C)OS(=O)(=O)c2ccccc21 [m-Cresol Purple] | 1.5 |
| CCN(CC)c1ccc(N=Nc2ccc(S(=O)(=O)[O-])cc2)cc1.[K+] [Ethyl orange] | 4.3 |
| O=S1(=O)OC(c2cc(Cl)c(O)c(Br)c2)(c2cc(Cl)c(O)c(Br)c2)c2ccccc21 [Bromochlorophenol blue] | 6.0 |
| O=S1(=O)OC(c2ccc(O)cc2)(c2ccc(O)cc2)c2ccccc21 [Phenol Red, phenolsulfonphthalein] | 7.6 |
